Test results as given in paper PMC12051620, “Molecular basis underlying the specificity of an antagonist AA92593 for mammalian melanopsins” (The Journal of Biological Chemistry, 2025).

Tests used:
Xenopus Opn4x WT = molecular target: T1, Xenopus Opn4x WT (Xenopus laevis, UniProt O57422); experiment: GsX GloSensor assay with Gsα/q11; assay type: cell-based; conditions: 16.7 μM AA92593, COS-1 cells
T1 construct: expressed in transfected cells; host or cells: COS-1
Excerpt: (§1) The GsX GloSensor assay using Gsα/q11 of Xenopus Opn4x and chicken Opn4-1 detected the light-dependent Gq activation in both non-mammalian-type melanopsins (Fig. 6, A and D). […] The ineffectiveness of AA92593 is consistent with the fact that Phe-94^2.61, Ser-188^ECL2, and Ser-269^6.52 are not conserved among non-mammalian-type melanopsins (Figs. 2A, S2 and S3). If these three residues are important for the antagonistic effect against melanopsins, the introduction of Phe-94^2.61/Ser-188^ECL2/Ser-269^6.52 into the non-mammalian-type melanopsins would make them susceptible to AA92593. As expected, the substitutions of C94^2.61F/T188S^ECL2/A269^6.52S in Xenopus Opn4x and chicken Opn4-1 increased their sensitivity to AA92593 by ∼49% and ∼22%, respectively (Fig. 6, B and E, G–I). Based on the loss-of-function properties of F94^2.61C/S188^ECL2T/S269^6.52A mutants of mammalian-type melanopsins and the gain-of-function properties of C94^2.61F/T188^ECL2S/A269^6.52S mutants of non-mammalian-type melanopsins (Figs. 2G, 3E, 6, G and H), we propose that Phe-94^2.61, Ser-188^ECL2, and Ser-269^6.52 are required for specific interactions with AA92593 as an effective antagonist. […]

chicken Opn4-1 WT = experiment: GsX GloSensor assay with Gsα/q11; assay type: cell-based; conditions: 16.7 μM AA92593, COS-1 cells
Excerpt: as §1

T1 sequence (O57422 1-334 limits assumed): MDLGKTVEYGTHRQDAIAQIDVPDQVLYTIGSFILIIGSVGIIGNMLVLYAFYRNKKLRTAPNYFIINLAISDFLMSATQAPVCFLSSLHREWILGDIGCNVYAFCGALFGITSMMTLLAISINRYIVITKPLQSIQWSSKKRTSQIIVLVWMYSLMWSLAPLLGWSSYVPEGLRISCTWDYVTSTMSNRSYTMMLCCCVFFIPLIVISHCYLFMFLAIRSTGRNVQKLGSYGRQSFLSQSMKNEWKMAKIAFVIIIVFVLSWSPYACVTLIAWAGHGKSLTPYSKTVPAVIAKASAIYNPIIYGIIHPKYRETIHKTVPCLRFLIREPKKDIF

Compound: COc1ccc(S(=O)(=O)N2CCCCC2)cc1C [AA92593]
- inhibition of the light-dependent responses (Xenopus Opn4x WT): did not effectively inhibit
- inhibition of the light-dependent responses (chicken Opn4-1 WT): did not effectively inhibit
